Experimental data from US20130065959A1, “SANITIZING MEAT WITH PERACID AND 2-HYDROXY ORGANIC ACID COMPOSITIONS” (Fresh Express Incorporated, priority 2009, published 2013).

Assays:
[1] = tested on: Listeria innocua ATCC 33090; assay: Suspended Cells Challenge Test, 20 s residence time, no surfactant (Example 2); format: cell-based
Description: (§1) Synergism with respect to efficacy in a Suspended Cells Challenge Test at 20 s residence time with no surfactant.
(§2) The experimental treatment groups were tap water, chlorinated water, a FE sanitizer wash water (FE, FE sanitizer, a solution of peroxyacetic acid and lactic acid, as further specified in a given experiment).
(§3) The experimental protocol was as follows: • 1. Transfer 1.00 mL of a ˜10^8 cfu/g Lactobacillus plantarum (ATCC 14917) stock culture into a test tube containing 9.00 mL of treatment test solution • 2. Vortex the mixture for 15 s • 3. Stop the reaction by transferring 1 mL of the treated samples to 9 mL of Butterfield Phosphate Buffer • 4. Enumerate viable residual cells through serial dilutions and spread plating with 1-mL transfers • 5. […] Repeat Steps 1 to 5 two more times • 7. Repeat Steps 1 to 6 with flume water • 8. Repeat Steps 1 to 6 with chlorinated water • 9. Repeat Steps 1 to 8 with various levels of FE • 10. Repeat Steps 1 to 8 with various levels of lactic acid • 11. Repeat Steps 1 to 8 with various levels of peroxyacetic acid • 12. Repeat Steps 1 to 11 with Listeria innocua (ATCC33090)
(§4) • 1. Log […] is a measure of the percent of microorganisms that are inactivated during the disinfection process and is defined as Log Inactivation=Log10 (No/NT) where No is the initial influent concentration of viable microorganisms; NT is the concentration of surviving microorganisms. As M cfu/g=microbial population of stock culture; W cfu/g=microbial population in solution of “Water Treatment” and X cfu/g=microbial population in solution of “X Treatment,” the Log reduction caused by “Treatment X”=Log (w/x)

[2] = tested on: Lactobacillus plantarum 14917; assay: as above; format: cell-based
Description: as §1, §2, §3, §4

[3] = cited from earlier work
[4] = tested on: Pseudomonas aeruginosa (ATCC 9027); assay: Attached cells on non-food surface coupons (Example 6); format: cell-based; settings: 90 sec
Description: Inoculum preparation: Pseudomonas aeruginosa (ATCC 9027) freeze dried culture was rehydrated in 10 mL of sterilized nutrient broth (NB) and mixed homogeneously. 0.1 mL of the stock solution was transferred to 10 mL of NB and incubated at 37C for 24 h. Enrichment was streaked to confirm purity. 10 mL of the enriched stock was transferred to 1,000 mL of NB and incubated at 37C for 24 h resulting in ˜10^8 cfu/mL stationary phase culture stock. The stock was cooled at 4C for 1 h. Microbial population of the stationary phase stock culture was enumerated by means of serial dilution with 9-mL Butterfield phosphate buffer tubes and spread plating on Nutrient Agar […] pre-poured agar plates.
Non-food surface inoculation: The 1000 mL˜10^8 cfu/mL stock culture solution was homogeneously mixed by shaking and swirling the Erlenmeyer flask. The 1000 mL culture was separated into 20 centrifuge tubes (50 mL each) and centrifuged at 10,000 rpm and 4C for 15 min. The stock culture pellet was re-suspended with 50 mL of NB. All the re-suspended cultures from the 20 centrifuge tubes were combined to form 1,000 mL˜10^8 cfu/mL inoculating stock culture. 15 mL of the P. aeruginosa inoculating stock together with a non-food surface coupon (2.5 cm×5 cm) were placed in a sterilized 50mL-centrifuge tube and incubated for 24 h at 37C. After 24 hr, the coupon was transferred to a sterile Petri dish and placed in an oven to dry for 1 hour at 35C. The coupons were cut from stainless steel sheet, wood, glass slide, and plastic sheet.
Treatment of inoculated non-food surfaces: 1 mL of test solution was dispensed onto a 2.5cm×2.5 cm marked area of each inoculated coupon for 60 s. A pre-wet sterilized cotton swab was dipped in 10 mL Butterfield phosphate buffer with sodium thiosulfate and swabbed the marked area on the coupon after 60 s exposure. The swabbed was then immediately placed into the 10 mL Butterfield phosphate buffer with sodium thiosulfate and mixed. One mL was immediately transferred from the aforementioned tube to a 9 mL Butterfield phosphate buffer. The total treatment time including the exposure time, the swabbing time, and the transfer time was 90 s. Each solution treatment was performed in duplications. The reduction for each solution treatment was compared to that of the city water treatment.

E. coli K12 = assay: Attached cells challenge test on produce leaves (Example 1); format: cell-based
[5] = Peroxyacetic acid 70 ppm, Lactic Acid 0 ppm
[6] = Peroxyacetic acid 75 ppm, Lactic Acid 0 ppm
[7] = Peroxyacetic acid 80 ppm, Lactic Acid 0 ppm
[8] = Peroxyacetic acid 0 ppm, Lactic Acid 2000 ppm
[9] = Peroxyacetic acid 0 ppm, Lactic Acid 2500 ppm
[10] = Peroxyacetic acid 0 ppm, Lactic Acid 3000 ppm

Compound: CC(=O)OO [Peroxyacetic acid, peroxyacetic acid]
- log reduction of suspended cells [1, 5]: 1.40 log10
- log reduction of suspended cells [1, 6]: 1.70 log10
- log reduction of suspended cells [1, 7]: 1.80 log10
- log reduction of suspended cells [2, 5]: 4.52 log10
- log reduction of suspended cells [2, 6]: 5.59 log10
- log reduction of suspended cells [2, 7]: 5.59 log10
- Oxidation Capacity [3]: 1.81 eV
- Log reductions ([4]; Glass coupon, PA 60 ppm, LA 0 ppm): 0.2
- Log reductions ([4]; Glass coupon, PA 80 ppm, LA 0 ppm): 0.0
- Log reductions ([4]; Plastic coupon, PA 60 ppm, LA 0 ppm): 1.2
- Log reductions ([4]; Plastic coupon, PA 80 ppm, LA 0 ppm): 0.9
- Log reductions ([4]; Stainless steel coupon, PA 60 ppm, LA 0 ppm): 1.5
- Log reductions ([4]; Stainless steel coupon, PA 100 ppm, LA 0 ppm): 1.4
- Log reductions ([4]; Wood coupon, PA 100 ppm, LA 0 ppm): 1.0
- Log reductions ([4]; Wood coupon, PA 140 ppm, LA 0 ppm): 0.8
- Log reduction, attached cells (E. coli K12; Romaine, PAA 60 ppm, LA 0.0%): 0.26
- Log reduction, attached cells (E. coli K12; Romaine, PAA 70 ppm, LA 0.0%): 0.53
- Log reduction, attached cells (E. coli K12; Romaine, PAA 80 ppm, LA 0.0%): 1.18
- Log reduction, attached cells (E. coli K12; Spinach, PAA 60 ppm, LA 0.0%): 0.69
- Log reduction, attached cells (E. coli K12; Spinach, PAA 70 ppm, LA 0.0%): 1.33
- Log reduction, attached cells (E. coli K12; Spinach, PAA 80 ppm, LA 0.0%): 2.46

Compound: CC(O)C(=O)O (centres unmarked) [Lactic Acid, lactic acid]
- log reduction of suspended cells [1, 8]: 0.08 log10
- log reduction of suspended cells [1, 9]: 0.19 log10
- log reduction of suspended cells [1, 10]: 0.05 log10
- log reduction of suspended cells [2, 8]: 0.00 log10
- log reduction of suspended cells [2, 9]: 0.02 log10
- log reduction of suspended cells [2, 10]: 0.01 log10
- Log reductions ([4]; Glass coupon, PA 0 ppm, LA 1,250 ppm): 0.4
- Log reductions ([4]; Glass coupon, PA 0 ppm, LA 2,500 ppm): 1.7
- Log reductions ([4]; Plastic coupon, PA 0 ppm, LA 2,500 ppm): 0.6
- Log reductions ([4]; Plastic coupon, PA 0 ppm, LA 5,000 ppm): 1.2
- Log reductions ([4]; Stainless steel coupon, PA 0 ppm, LA 1,250 ppm): 1.6
- Log reductions ([4]; Stainless steel coupon, PA 0 ppm, LA 2,500 ppm): 1.9
- Log reductions ([4]; Wood coupon, PA 0 ppm, LA 2,500 ppm): 1.4
- Log reductions ([4]; Wood coupon, PA 0 ppm, LA 7,500 ppm): 3.6
- Log reduction, attached cells (E. coli K12; Romaine, PAA 0 ppm, LA 0.6%): 0.24
- Log reduction, attached cells (E. coli K12; Romaine, PAA 0 ppm, LA 0.9%): 0.37
- Log reduction, attached cells (E. coli K12; Romaine, PAA 0 ppm, LA 1.2%): 1.28
- Log reduction, attached cells (E. coli K12; Spinach, PAA 0 ppm, LA 0.6%): 0.09
- Log reduction, attached cells (E. coli K12; Spinach, PAA 0 ppm, LA 0.9%): 0.42
- Log reduction, attached cells (E. coli K12; Spinach, PAA 0 ppm, LA 1.2%): 0.81
